# In patent US20070161107A1, “Differentiation of human embryonic stem cells to cardiomyocytes” (priority 2003, published 2007):
# Tests used:
# [1] = test system: hES derived cardiomyocytes; assay: Chronotropic response (beating rate) of dissociated hES-derived cardiomyocytes; type: cell-based, human; settings: cultured dissociated hES cardiomyocytes
# Description: (§1) FIG. 4. Action potentials and chronotropic responses. […] C.
# Co-cultures were initiated as for END-2 cells.
# (§2) Ventricular-like action potentials predominated (28 out of 33; table 2) but atrial-like (n=2), pacemaker-like (n=1) and vascular smooth muscle like-cells (n=2) were also found. In areas in which the cells were not beating but had adopted morphologies indistinguishable from beating areas (FIG. 1F), current injection was sufficient to induce repeated action potentials and sustained synchronous rhythmic contractions. Transcripts for MLC-2v were also detected by RTPCR in non-beating, myocyte-like areas (not shown); scoring beating muscle may thus underestimate the number of cardiomyocytes present in culture. […] The effects of phenylephrine, isoprenaline and carbachol on cultured dissociated hES cardiomyocytes were tested and compared to cultured human fetal ventricular cells (FIG. 4B). […] Similar effects were reported in mES derived cardiomyocytes 21 and mouse fetal cells (22).
# [2] = test system: human fetal ventricular cells; assay: Chronotropic response (beating rate) of cultured human fetal ventricular cells; type: cell-based
# Description: as §1, §2
SMILES,effect on beating rate [1],effect on beating rate [2]
C[N+](C)(C)CCOC(N)=O [Carbachol],decreased the beating rate,decreased the beating rate
CC(C)NCC(O)c1ccc(O)c(O)c1 (stereo not drawn) [isoprenaline],increase,increase
CNC[C@H](O)c1cccc(O)c1 [phenylephrine],increase,increase
